{"source": "patent US8039505B2", "about": "“Compounds for modulating T-cells” (University of Utah Research Foundation, priority 2007, dated 2011)", "key": {"[1]": {"tested_on": "human B-ALL line RS 4; 11", "experiment": "MTT cell viability, RS4;11", "assay_type": "cell-based", "settings": "RS4;11, 2.5 μM, 48 hours", "description": "FIG. 3 is a graph showing viability of human T-ALL lines incubated with individual compounds. Specifically, two human ALL lines (B-ALL: RS4; 11 and T-ALL: Jurkat) were incubated on day 0 with serum or with 2.5 μM of the indicated compounds (except for aphidicolin 1 μM and cyclosporine 1.5 μM). 48 hours later, cells were tested for viability by MTT test. Results from the mean of 3 to 4 experiments carried out in triplicate (individual dots) and the mean of all experiments (horizontal bar) are indicated. Results are shown for compounds without a cell cycle effect (B). Viability of untreated cells was arbitrarily set at 1.0.\n(§1) Cell culture experiments: Cells were incubated at 37° C. in 75 mL flasks in RPMI containing 10% FBS, 5 mL Penicillin/Streptomycin (100×) in a total volume of […]. Cells were counted using a hemocytometer, and 25,000 cells were plated in each well of a 96-well plate. Compounds and controls were added and cells were harvested after a 48 hr incubation period.\nTo assess effects of compounds, cell viability was measured. […] After crystal solubilization with DMSO a blue color (that is proportional to the amount of crystal formed) can be measured. […] Final optical density (OD) obtained from formazan formation was calculated OD=L1-L2 (background). […]"}, "[2]": {"tested_on": "HEK293 human kidney cell line", "experiment": "Cell viability, kidney cell line", "assay_type": "cell-based", "description": "Experiments described in this document are carried out in zebrafish embryos (cell cycle experiments) and lck-GFP transgenic larvae (5 to 8 days after fertilization), and in human cell lines (Jurkat is a human T cell leukemia, RS4; 11 is a human B cell leukemia and HEK293 is a human kidney cell line).\nas §1\nTo assess effects of compounds, cell viability was measured. For this, cells were incubated with MTT [3-(4,5-[…])-2,5 diphenyl Tetrazolium Bromid], a compound that is transformed into a formazan crystal by mitochondrial dehydrogenases. After crystal solubilization with DMSO a blue color (that is proportional to the amount of crystal formed) can be measured. Formazan solution absorbs light at 550-570 nm but not at 620-650 nm. 620-650 nm absorbency results from cell debris and well imperfections. Final optical density (OD) obtained from formazan formation was calculated OD=L1-L2 (background).\nNext, the nine compounds were tested for activity against the human T-ALL line: Jurkat and the human B-ALL line RS 4; 11. […]"}, "[3]": {"tested_on": "T cells from the thymus of lck::eGFP transgenic zebrafish", "experiment": "Screen for T cell ablation in lck::eGFP transgenic zebrafish larvae", "assay_type": "in vivo", "description": "FIG. 4 is a schematic of the experimental set-up of drug screen using DIVERSet small molecule library and lck-GFP transgenic zebrafish. Beginning at the top of the figure, three day 6 pf transgenic larvae are arrayed in 300 μL of E3 embryos water into each of the 96 wells of a round bottom tissue culture plate (except G1, H1, G12, H12). Controls are added in triplicate: DMSO (A1-C1), E3 (D1-F1), dexamethasone 25 μM (A12-C12), and methanol (D12-F12). Then, five compounds from the DIVERSet library are added to each well at a final concentration of 5 μM. Plates are incubated at […] for 48 hours, and are inspected by fluorescence microscopy at 24 and 48 hours. […] Compounds from wells identified as active are tested individually in triplicates. One of the five compounds that is active in all three wells is identified and is worked up further (left side).\nTo extend the versatility of the system, a transgenic line of zebrafish was generated; in this line all T cells are tagged with green fluorescent protein (GFP). GFP is driven by the T cell specific p56^lck promoter (Langenau et al., Proc Natl Acad Sci USA 101:7369-7374, 2004).\nBased on the above observation that zebrafish T cells can be killed by the small molecule dexamethasone (MW 392) (Langenau et al., Proc Natl Acad Sci USA 101:7369-7374, 2004) a screen for novel compounds with a similar T cell ablative profile was performed. […]"}}}
{"smiles": "C(=NNc1cccc2cccnc12)c1c[nH]c2ccccc12", "note": "[Compound C3, 1H-indole-3-carbaldehyde quinolin-8-ylhydrazone]", "values": [{"measurement": "Effect on B-ALL line (viability, MTT)", "setting": "[1]", "result": "neither the kidney cell line, nor the B-ALL were affected"}, {"measurement": "Effect on kidney cell line (viability)", "setting": "[2]", "result": "neither the kidney cell line, nor the B-ALL were affected"}, {"measurement": "Activity in vivo (active concentration)", "setting": "[3]", "result": 3, "unit": "µM"}]}
